From the NIST ThermoML archive (doi:10.1016/j.fluid.2014.10.015)

Settings: for mass density / viscosity: Liquid; for mass density: Vibrating tube method; for viscosity: Concentric cylinders viscometry; for surface tension liquid-gas: Pendant drop shape

CC(=O)[O-].CCCCn1cc[n+](C)c1 [1-butyl-3-methylimidazolium acetate]
Settings | mass density [kg/m3] | viscosity [mPa·s]
273.15 K, 101 kPa | 1068.3 | –
273.15 K, 101.33 kPa | 1068.29 | –
273.15 K, 238 kPa | 1068.35 | –
273.15 K, 5002 kPa | 1070.1 | –
273.15 K, 10020 kPa | 1071.93 | –
273.15 K, 19968 kPa | 1075.5 | –
273.15 K, 29945 kPa | 1079.01 | –
273.15 K, 40001 kPa | 1082.46 | –
273.15 K, 49987 kPa | 1085.81 | –
273.15 K, 59935 kPa | 1089.07 | –
273.15 K, 69985 kPa | 1092.29 | –
273.15 K, 79928 kPa | 1095.39 | –
273.15 K, 90040 kPa | 1098.47 | –
273.15 K, 99956 kPa | 1101.42 | –
273.15 K, 109260 kPa | 1104.11 | –
273.15 K, 119925 kPa | 1107.11 | –
273.15 K, 129945 kPa | 1109.85 | –
273.15 K, 139956 kPa | 1112.52 | –
278.15 K, 101.33 kPa | – | 3157.5
278.17 K, 101.33 kPa | 1065.11 | –
283.12 K, 747 kPa | 1062.18 | –
283.13 K, 5103 kPa | 1063.85 | –
283.15 K, 101 kPa | 1061.93 | –
283.15 K, 101.33 kPa | – | 1818.3
283.15 K, 59694 kPa | 1083.4 | –
283.15 K, 70000 kPa | 1086.8 | –
283.15 K, 79404 kPa | 1089.83 | –
283.15 K, 90034 kPa | 1093.15 | –
283.15 K, 98553 kPa | 1095.75 | –
283.15 K, 109979 kPa | 1099.13 | –
283.15 K, 120352 kPa | 1102.1 | –
283.15 K, 129998 kPa | 1104.78 | –
283.15 K, 139706 kPa | 1107.39 | –
283.16 K, 9902 kPa | 1065.67 | –
283.16 K, 29987 kPa | 1073.08 | –
283.16 K, 39574 kPa | 1076.5 | –
283.16 K, 50021 kPa | 1080.12 | –
283.17 K, 101.33 kPa | 1061.96 | –
283.17 K, 19845 kPa | 1069.38 | –
293.13 K, 99228 kPa | 1090.59 | –
293.13 K, 110000 kPa | 1093.89 | –
293.13 K, 120552 kPa | 1097.03 | –
293.13 K, 130029 kPa | 1099.77 | –
293.13 K, 139794 kPa | 1102.51 | –
293.14 K, 19892 kPa | 1063.32 | –
293.14 K, 89975 kPa | 1087.68 | –
293.15 K, 101 kPa | 1055.7 | –
293.15 K, 101.33 kPa | 1055.7 | 689.5
293.15 K, 928 kPa | 1056.02 | –
293.15 K, 10042 kPa | 1059.57 | –
293.15 K, 29991 kPa | 1067.08 | –
293.15 K, 50024 kPa | 1074.3 | –
293.15 K, 59451 kPa | 1077.57 | –
293.15 K, 70011 kPa | 1081.16 | –
293.15 K, 79858 kPa | 1084.42 | –
293.16 K, 4731 kPa | 1057.51 | –
293.16 K, 39318 kPa | 1070.48 | –
298.13 K, 119989 kPa | 1094.32 | –
298.14 K, 19965 kPa | 1060.4 | –
298.14 K, 59928 kPa | 1075.03 | –
298.15 K, 101 kPa | 1052.59 | –
298.15 K, 101.33 kPa | 1052.59 | 447.5
298.15 K, 1002 kPa | 1052.95 | –
298.15 K, 10002 kPa | 1056.52 | –
298.15 K, 29947 kPa | 1064.19 | –
298.15 K, 49953 kPa | 1071.51 | –
298.15 K, 70002 kPa | 1078.49 | –
298.15 K, 89954 kPa | 1085.08 | –
298.15 K, 109924 kPa | 1091.31 | –
298.15 K, 129954 kPa | 1097.2 | –
298.15 K, 139957 kPa | 1100.01 | –
298.16 K, 5001 kPa | 1054.55 | –
298.16 K, 39934 kPa | 1067.89 | –
298.16 K, 80006 kPa | 1081.84 | –
298.16 K, 99359 kPa | 1088.06 | –
313.13 K, 101.33 kPa | 1043.35 | –
313.13 K, 20418 kPa | 1051.65 | –
313.13 K, 30021 kPa | 1055.44 | –
313.13 K, 39510 kPa | 1059.09 | –
313.13 K, 50039 kPa | 1063.04 | –
313.14 K, 59562 kPa | 1066.53 | –
313.14 K, 139775 kPa | 1092.44 | –
313.15 K, 101 kPa | 1043.35 | –
313.15 K, 101.33 kPa | – | 155
313.15 K, 70013 kPa | 1070.25 | –
313.15 K, 119744 kPa | 1086.54 | –
313.15 K, 129979 kPa | 1089.6 | –
313.16 K, 10222 kPa | 1047.54 | –
313.16 K, 79427 kPa | 1073.52 | –
313.16 K, 89989 kPa | 1077.08 | –
313.16 K, 98994 kPa | 1080.03 | –

Settings | surface tension liquid-gas [mN/m]
293.2 K | 37.87
298.2 K | 37.61
303.2 K | 37.36
308.2 K | 37.11
